pKi: −log10 of the molar value.
Key:
[1] = target: T1, Coagulation factor X (Homo sapiens, UniProt P00742); test: Inhibition of Coagulation factor Xa
[2] = target: T1, Coagulation factor X; test: Tested for inhibitory against Coagulation factor Xa at a concentration of 3.9 uM
[3] = target: Prothrombin (Homo sapiens, UniProt P00734); test: Tested for inhibitory activity against thrombin
[4] = target: Plasminogen (Homo sapiens, UniProt P00747); test: Tested for inhibitory activity against plasmin
[5] = target: Tissue-type plasminogen activator (Homo sapiens, UniProt P00750); test: Tested for inhibitory activity against Tissue plasminogen activator
[6] = target: Serine protease 1 (Homo sapiens, UniProt P07477); test: Tested for inhibitory activity against trypsin
[7] = target: Vitamin K-dependent protein C (Homo sapiens, UniProt P04070); test: Tested for inhibitory activity against Activated protein C
[8] = target: T1, Coagulation factor X; test: Tested for inhibitory activity against Coagulation factor Xa

Chain of Serine protease 1 (P07477 whole entry): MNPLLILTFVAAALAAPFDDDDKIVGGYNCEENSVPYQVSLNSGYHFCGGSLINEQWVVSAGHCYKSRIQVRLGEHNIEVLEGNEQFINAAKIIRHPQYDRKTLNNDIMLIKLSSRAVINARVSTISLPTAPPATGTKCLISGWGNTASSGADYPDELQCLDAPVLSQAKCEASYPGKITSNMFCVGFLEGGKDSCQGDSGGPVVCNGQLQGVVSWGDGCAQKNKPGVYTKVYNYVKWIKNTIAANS
T1 sequence (P00742 41-179 limits assumed): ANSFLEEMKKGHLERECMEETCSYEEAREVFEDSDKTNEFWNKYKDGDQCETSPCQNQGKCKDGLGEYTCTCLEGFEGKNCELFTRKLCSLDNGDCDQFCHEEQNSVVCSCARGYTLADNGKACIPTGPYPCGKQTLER
T1 sequence (P00742 235-488 limits assumed): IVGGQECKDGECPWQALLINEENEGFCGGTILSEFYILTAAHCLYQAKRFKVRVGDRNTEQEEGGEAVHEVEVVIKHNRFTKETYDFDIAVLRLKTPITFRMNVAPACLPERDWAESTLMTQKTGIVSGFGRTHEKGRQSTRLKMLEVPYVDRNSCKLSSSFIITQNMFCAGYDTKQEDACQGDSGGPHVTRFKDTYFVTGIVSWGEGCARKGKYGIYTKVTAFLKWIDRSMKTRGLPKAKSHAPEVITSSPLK
Chain of Vitamin K-dependent protein C (P04070 43-197 limits assumed): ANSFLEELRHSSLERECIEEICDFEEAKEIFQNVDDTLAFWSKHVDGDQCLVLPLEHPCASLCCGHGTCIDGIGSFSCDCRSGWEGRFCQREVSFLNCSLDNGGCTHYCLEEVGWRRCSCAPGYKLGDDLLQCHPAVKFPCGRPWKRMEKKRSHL
Chain of Vitamin K-dependent protein C (P04070 212-461 limits assumed): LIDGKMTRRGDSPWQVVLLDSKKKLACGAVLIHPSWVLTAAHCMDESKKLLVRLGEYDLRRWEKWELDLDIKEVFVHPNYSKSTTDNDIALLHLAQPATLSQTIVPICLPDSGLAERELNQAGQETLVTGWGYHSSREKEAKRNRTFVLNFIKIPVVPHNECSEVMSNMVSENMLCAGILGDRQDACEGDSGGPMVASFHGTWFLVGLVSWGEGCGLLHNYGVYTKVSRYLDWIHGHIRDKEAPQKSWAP
Chain of Tissue-type plasminogen activator (P00750 whole entry): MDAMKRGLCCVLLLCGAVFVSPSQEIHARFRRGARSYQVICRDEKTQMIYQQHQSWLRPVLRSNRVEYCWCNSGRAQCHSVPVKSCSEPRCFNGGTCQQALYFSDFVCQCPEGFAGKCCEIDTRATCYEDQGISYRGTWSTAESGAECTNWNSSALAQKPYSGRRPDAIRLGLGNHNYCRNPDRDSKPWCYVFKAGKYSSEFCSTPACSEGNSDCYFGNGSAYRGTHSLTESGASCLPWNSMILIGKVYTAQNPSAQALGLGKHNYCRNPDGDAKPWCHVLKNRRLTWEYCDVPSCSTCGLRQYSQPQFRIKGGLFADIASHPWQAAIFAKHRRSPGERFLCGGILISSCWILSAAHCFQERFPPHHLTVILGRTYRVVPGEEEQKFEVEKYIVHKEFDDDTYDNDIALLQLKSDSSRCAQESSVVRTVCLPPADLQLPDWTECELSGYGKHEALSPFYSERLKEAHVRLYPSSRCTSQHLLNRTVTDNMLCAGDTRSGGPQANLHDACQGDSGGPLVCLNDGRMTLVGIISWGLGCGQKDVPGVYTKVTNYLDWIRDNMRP
Chain of Plasminogen (P00747 97-580 limits assumed): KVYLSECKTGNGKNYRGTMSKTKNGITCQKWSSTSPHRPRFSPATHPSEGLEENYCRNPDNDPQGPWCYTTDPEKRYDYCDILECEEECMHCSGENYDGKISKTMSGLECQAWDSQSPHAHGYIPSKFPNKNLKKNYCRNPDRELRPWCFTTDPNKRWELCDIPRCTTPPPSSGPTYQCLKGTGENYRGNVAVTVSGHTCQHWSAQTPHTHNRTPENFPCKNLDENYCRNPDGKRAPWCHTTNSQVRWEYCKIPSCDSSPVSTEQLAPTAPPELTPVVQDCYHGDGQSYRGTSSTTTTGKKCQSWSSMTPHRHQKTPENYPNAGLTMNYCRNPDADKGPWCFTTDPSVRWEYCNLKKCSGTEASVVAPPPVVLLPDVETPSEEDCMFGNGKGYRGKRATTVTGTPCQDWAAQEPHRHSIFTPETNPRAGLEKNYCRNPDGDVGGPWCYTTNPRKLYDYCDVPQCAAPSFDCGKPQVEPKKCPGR
Chain of Plasminogen (P00747 581-810 limits assumed): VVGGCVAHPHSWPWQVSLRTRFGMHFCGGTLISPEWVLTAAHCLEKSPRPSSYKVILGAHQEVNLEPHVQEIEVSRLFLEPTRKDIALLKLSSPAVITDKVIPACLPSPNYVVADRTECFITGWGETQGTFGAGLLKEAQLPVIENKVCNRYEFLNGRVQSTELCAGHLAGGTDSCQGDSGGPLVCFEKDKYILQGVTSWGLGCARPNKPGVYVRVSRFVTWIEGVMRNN

pKi [1]	SMILES	other results
< 5.92	Nc1ncnc2cc(CN3CCN(Cc4nc5ccc(Cl)cc5o4)CC3=O)ccc12	–
< 5.92	Nc1ncnc2cc(CN3CCN(Cc4nc5cc(Cl)c(Cl)cc5[nH]4)CC3=O)ccc12	–
6.41	Nc1ncnc2cc(CN3CCN(Cc4cc5ccc(Cl)cc5[nH]4)CC3=O)ccc12	–
–	N=C(N)c1cccc(CN2CCN(Cc3nc4cc(Cl)ccc4[nH]3)CC2=O)c1	inhibition [2]: 42%
< 5.92	Nc1ncnc2cc(CN3CCN(Cc4nc5ccc(C(F)(F)F)cc5[nH]4)CC3=O)ccc12	–
6.92	Cc1ccc2nc(CN3CCN(Cc4ccc5c(N)ncnc5c4)C(=O)C3)[nH]c2c1	–
< 5.92	Nc1ncnc2cc(CN3CCN(Cc4nc5cc(OC(F)(F)F)ccc5[nH]4)CC3=O)ccc12	–
6.54	Cn1c(CN2CCN(Cc3ccc4c(N)ncnc4c3)C(=O)C2)nc2ccc(Cl)cc21	–
7.40	N=C(N)c1ccc(CN2CCN(Cc3nc4ccc(Cl)cc4[nH]3)CC2=O)cc1	–
5.92	Nc1ncnc2cc(CN3CCN(Cc4nc5cc(Cl)ccc5o4)CC3=O)ccc12	–
< 5.92	Nc1ncnc2cc(CN3CCN(Cc4nc5cc(Cl)ccc5[nH]4)CC3)ccc12	–
5.92	Nc1ncnc2cc(CN3CCN(Cc4nc5ccccc5[nH]4)CC3=O)ccc12	–
7.77	Nc1ncnc2cc(CN3CCN(Cc4nc5ccc(Br)cc5[nH]4)CC3=O)ccc12	–
7.62	Nc1ncnc2cc(CN3CCN(Cc4cc5cc(Cl)ccc5[nH]4)CC3=O)ccc12	pKi [3]: < 5.40; pKi [4]: < 5.14; pKi [5]: < 5.06; pKi [6]: < 5.54; pKi [7]: < 4.74
< 5.92	N=C(N)c1cccc(CN2CCN(Cc3nc4ccc(Cl)cc4[nH]3)CC2=O)c1	–
8.00	Nc1ncnc2cc(CN3CCN(Cc4nc5ccc(Cl)cc5[nH]4)CC3=O)ccc12	pKi [3]: < 5.40; pKi [4]: < 5.14; pKi [5]: < 5.06; pKi [8]: 7.38; pKi [6]: < 5.54; pKi [7]: < 4.74
< 5.92	Nc1ncnc2cc(CN3CCN(Cc4nc5ccc(Cl)cc5s4)CC3=O)ccc12	–
8.52	Nc1ncnc2cc(CN3CCN(S(=O)(=O)c4nc5ccc(Cl)cc5[nH]4)CC3=O)ccc12	pKi [3]: < 5.40; pKi [4]: < 5.14; pKi [5]: < 5.06; pKi [6]: < 5.54; pKi [7]: < 4.74

— ChEMBL document CHEMBL1135247, “Benzimidazoles and isosteric compounds as potent and selective factor Xa inhibitors” (Bioorg Med Chem Lett, 2002)
